How the values were obtained:
[1] = Autosampler stability of ready for injection samples; assay type: physicochemical, human
[2] = Long-term stability in spiked pooled human plasma
[3] = design: method as in supplement references [1-55] as printed per drug; conditions: minimum steady-state blood plasma concentration after multiple dose administration; ref supplement references [1-55] per drug; cited from earlier work
[4] = Plasma concentrations in patients on oral antitumor therapy (LC-MS); assay type: in vivo, human; conditions: patient plasma, all samples; r.c. = respective cmin
Excerpt: The liquid chromatography-mass spectrometer system consisted of a Thermo Scientific Dionex UltiMate^TM 3000 with an integrated and temperature controlled autosampler (Thermo Fisher Scientific, Dreieich, Germany). An Acquity UPLC® BEH C18 column (2.1 × 100 mm, 1.7 µm; Waters, Milford, CT, USA) equipped with an Acquity UPLC® BEH C18 VanGuard^TM Pre-Column (2.1 × 5 mm, 1.7 µm; Waters, Milford, CT, USA) was used for chromatographic separation. The Q-Exactive^TM Focus mass spectrometer (MS) was hyphenated with a heated electrospray ionization (HESI) source (both from Thermo Fisher Scientific, Dreieich, Germany).
Chromatographic separation was achieved using a gradient elution with water containing 0.5% (v/v) FA (eluent A) and MeOH with 0.1% (v/v) FA (eluent B). The injection volume was 5 µL. The gradient program is shown in Supplement Table S2. The flow rate was 0.5 mL/min with a total run time of 15 min. The column heater was maintained at 50 °C and the autosampler temperature was 4 °C.
The following MS and HESI settings were maintained for all analyses: Sheath gas, auxiliary gas, and sweep gas flow rates were set to 60, 20, and 0, respectively. The spray voltage was 4000 V. Both capillary and auxiliary gas heater temperatures were set to 400 °C. High-purity nitrogen gas was used for the HESI source gases and for the bath gas of the C-trap. […] The HESI source was configured in positive mode for ionization.
The stock solutions were stored in glass vials at −80 °C. Aliquots of all stock solutions were combined in ACN (volumes of individual stock solution solvents are negligible) to obtain a standard solution of all analytes with an individual concentration of 200% of the respective trough level (cmin). Eight individual working standards were prepared by stepwise dilution of this standard solution with concentrations from 10 to 200% cmin (shown in Supplement Table S3). Furthermore, the four individual IS stock solutions were combined and diluted to 50 ng/mL with ACN. Calibration and validation standards were prepared by spiking 50 µL pooled human plasma with 10 µL of the respective working solution. Next, 250 µL IS solution (50 ng/mL in ACN) were added and vortexed vigorously. […] Then, 100 µL supernatant were transferred to 300 µL HPLC insert glass vials and diluted with 100 µL eluent (90% A/10% B). For blank samples, 50 µL pooled human plasma were combined with 10 µL ACN (instead of working solution) and prepared as described above. The calibration and validation standards were freshly prepared before every run. Patient plasma samples were prepared as calibration and validation standards (no additional processing step necessary), except for adding 10 µL ACN instead of 10 µL working standard. Before sample preparation, the frozen plasma samples were thawed in absence of light at 4 °C.
Blood samples were collected over the entire dosing interval from patients treated with an oral anticancer drug as listed in Supplement Table S4. […] A maximum of two samples at two different time points throughout the entire dosing interval were collected per patient. Treatment duration before collection was at least five half-lives (depending on the specific oral anticancer drug). The samples were collected in K3-EDTA tubes.
A total of 71 blood samples from 39 patients treated with 14 different oral anticancer drugs were collected (see Supplement Table S4 for details). All patients were recruited from independent outpatient clinics associated with the Comprehensive Cancer Center of the University Hospital Erlangen (CCC Erlangen-EMN). Of 71 blood samples, 41 were taken ±4 h of trough level (cmin).

[5] = Freeze-thaw stability in spiked pooled human plasma; assay type: physicochemical
[6] = Short-term stability in spiked pooled human plasma (bench-top, 4 °C, 56 °C)

## CC(C)(C)c1nc(-c2cccc(NS(=O)(=O)c3c(F)cccc3F)c2F)c(-c2ccnc(N)n2)s1 [Dabrafenib]
[1]; validation standard 2xLLOV
  Autosampler (24h, 4°C) Accuracy [%]: 97.9%
  Autosampler (72h, 4°C) Accuracy [%]: 99.3%
[1]; validation standard LLOV
  Autosampler (24h, 4°C) Accuracy [%]: 93.5%
  Autosampler (72h, 4°C) Accuracy [%]: 93.1%
[1]; validation standard MOV
  Autosampler (24h, 4°C) Accuracy [%]: 102.1%
  Autosampler (72h, 4°C) Accuracy [%]: 99.8%
[1]; validation standard ULOV
  Autosampler (24h, 4°C) Accuracy [%]: 100.7%
  Autosampler (72h, 4°C) Accuracy [%]: 101.4%
[2]; validation standard 2xLLOV
  Long-term stability, 1 month, -20°C Accuracy [%]: 101.2%
  Long-term stability, 1 month, -80°C Accuracy [%]: 93.1%
  Long-term stability, 2 month, -20°C Accuracy [%]: 98.6%
  Long-term stability, 2 month, -80°C Accuracy [%]: 101.3%
  Long-term stability, 3 month, -20°C Accuracy [%]: 96.6%
  Long-term stability, 3 month, -80°C Accuracy [%]: 101.7%
  Long-term stability, 6 weeks, 4°C, without daylight Accuracy [%]: 107.2%
[2]; validation standard LLOV
  Long-term stability, 1 month, -20°C Accuracy [%]: 101.0%
  Long-term stability, 1 month, -80°C Accuracy [%]: 96.1%
  Long-term stability, 2 month, -20°C Accuracy [%]: 99.0%
  Long-term stability, 2 month, -80°C Accuracy [%]: 97.9%
  Long-term stability, 3 month, -20°C Accuracy [%]: 97.1%
  Long-term stability, 3 month, -80°C Accuracy [%]: 96.6%
  Long-term stability, 6 weeks, 4°C, without daylight Accuracy [%]: 102.4%
[2]; validation standard MOV
  Long-term stability, 1 month, -20°C Accuracy [%]: 96.1%
  Long-term stability, 1 month, -80°C Accuracy [%]: 92.3%
  Long-term stability, 2 month, -20°C Accuracy [%]: 97.8%
  Long-term stability, 2 month, -80°C Accuracy [%]: 98.9%
  Long-term stability, 3 month, -20°C Accuracy [%]: 100.3%
  Long-term stability, 3 month, -80°C Accuracy [%]: 98.0%
  Long-term stability, 6 weeks, 4°C, without daylight Accuracy [%]: 107.2%
[2]; validation standard ULOV
  Long-term stability, 1 month, -20°C Accuracy [%]: 97.0%
  Long-term stability, 1 month, -80°C Accuracy [%]: 92.2%
  Long-term stability, 2 month, -20°C Accuracy [%]: 97.4%
  Long-term stability, 2 month, -80°C Accuracy [%]: 98.0%
  Long-term stability, 3 month, -20°C Accuracy [%]: 96.3%
  Long-term stability, 3 month, -80°C Accuracy [%]: 98.6%
  Long-term stability, 6 weeks, 4°C, without daylight Accuracy [%]: 100.6%
[3]
  cmin: 46.6 ng/mL
[4]
  Median Concentration of All Samples [% of r.c.]: 722.3 % of r.c.
  Min–Max Concentration [% of r.c.]: 455.8–988.8 % of r.c.
[5]; validation standard 2xLLOV
  Freeze-Thaw Accuracy [%]: 97.8%
[5]; validation standard LLOV
  Freeze-Thaw Accuracy [%]: 93.9%
[5]; validation standard MOV
  Freeze-Thaw Accuracy [%]: 99.0%
[5]; validation standard ULOV
  Freeze-Thaw Accuracy [%]: 97.6%
[6]; acceptance limit <85%
  light sensitivity: no losses of concentrations below the acceptance limit
[6]; validation standard 2xLLOV
  Short-time stability (1h, 56°C) Accuracy [%]: 46.2%
  Short-time stability (24h, 4°C, without daylight) Accuracy [%]: 99.6%
  Short-time stability (24h, RT, with daylight) Accuracy [%]: 98.0%
  Short-time stability (24h, RT, without daylight) Accuracy [%]: 107.6%
[6]; validation standard LLOV
  Short-time stability (1h, 56°C) Accuracy [%]: 42.8%
  Short-time stability (24h, 4°C, without daylight) Accuracy [%]: 112.7%
  Short-time stability (24h, RT, with daylight) Accuracy [%]: 97.0%
  Short-time stability (24h, RT, without daylight) Accuracy [%]: 108.2%
[6]; validation standard MOV
  Short-time stability (1h, 56°C) Accuracy [%]: 42.4%
  Short-time stability (24h, 4°C, without daylight) Accuracy [%]: 100.0%
  Short-time stability (24h, RT, with daylight) Accuracy [%]: 97.7%
  Short-time stability (24h, RT, without daylight) Accuracy [%]: 99.3%
[6]; validation standard ULOV
  Short-time stability (1h, 56°C) Accuracy [%]: 35.6%
  Short-time stability (24h, 4°C, without daylight) Accuracy [%]: 94.0%
  Short-time stability (24h, RT, with daylight) Accuracy [%]: 100.2%
  Short-time stability (24h, RT, without daylight) Accuracy [%]: 99.7%
